Counter-ions that a name gives are not always drawn. Like-named read-outs stand apart in the source and are kept apart here.

One may read the IC50 as the point on the concentration scale where inhibition reaches its midpoint.

For test [1], the target named is NMDA receptor (3H-MK801 binding, high and low affinity binding sites). The test is described as follows: 3H-MK801 (Dizocilpine) binding in vitro, rat whole brain membranes. Conditions: 5 nM 3H-MK-801, 2 hours, room temperature. As to the method:
3H-MK801 (Dizocilpine) binding in vitro
The whole brain from 150-200 g male rats, without cerebellum and without medulla oblongata was dissected on ice. The tissue was then homogenized with an Ultra-Turrax maximum speed during 30 seconds at 4° C. in 50 volumes of cold Tris HCl 50 mM, EDTA disodium 10 mM, pH=7.4 buffer (wet weight/v). The homogenate was centrifuged at 48'000 x g (20'000 rpm, SS34, Sorvall RC5C) for 10 minutes. The pellet was rehomogenized with the same volume of buffer and the homogenate incubated at 37° C. for 10 minutes. After centrifugation as above, the pellet was rehomogenized with the same volume of buffer and frozen at -80° C. in 35 ml fractions for at least 16 hours and not more than 2 weeks.
For the binding experiment, the homogenate was centrifuged as above and the pellet was washed 3 times by homogenization in 25 volumes of cold Tris HCl 5mM, pH=7.4 buffer (Ultra-Turrax, maximum speed, 30 seconds) and centrifugation as above. The final pellet was rehomogenized in 25 volumes of buffer (original wet weight) and used as such in the assay. The final concentration of membrane in the assay was 20 mg/ml (wet weight).
The incubation was performed in the presence of 1 nM glutamate, glycine and spermidine. MK-801, (+)-[3-3H(N)], NEN (NET-972) 20Ci/mmol, was used at 5 nM final concentration. Non specific binding was determined in presence of 10ONM 1-[1-(2-Thienyl)cyclohexyl]piperidine (TCP). After 2 hours of incubation at room temperature, the suspension was filtered (Whatmann GF/B, soaked in 0.1% polyethylenimine for 2 hours) and washed 5 times with 3 ml of cold Tris HCl 5mM, pH=7.4 buffer. The air-dried filters were counted with 10 ml of Ultima-gold (Packard) in a Tri-Carb 2500 TR scintillation counter after agitation.
The radioactive decays per minute (DPM) were transformed in % of specific binding and these values were treated by a non linear regression calculation program (BINDING, H. Affolter, Switzerland) which provided the IC50 values for the low and high affinity binding sites (=concentrations producing half maximal inhibition at the respective sites). Each experiment was repeated at least three times and the final IC50 values were calculated as the mean +/-standard deviation of the individual experiments.
Reference: R. W. Ransom and N. L. Stec. Journal of Neurochemistry 51, 830-836, 1988.

The next test concerns the target T1, NMDAR1C--NMDAR2B (Rattus norvegicus, UniProt P35439+Q00960).
T1 construct: expressed in transfected cells; host or cells: Xenopus laevis oocytes, mRNA injected 1:1
Nature of the test: Electrophysiology on recombinant NMDA receptors NMDAR1C-NMDAR2B expressed in Xenopus oocytes. The class given is cell-based. Conditions: -80 mV, 15 μM Asp plus 0.2 μM Gly, read-out: Electrophysiology IC50 NMDAR 1C u. 2B. From the text:
(§1) Electrophysiology on recombinant NMDA receptors
(§2) cDNA clones coding for the subunits NMDAR1C and NMDAR2A of the NMDA receptor (see Hollmann and Heinemann, 1994, Annu. Rev. Neurosci. 17:31 for nomenclature of NMDA receptor subunits) were isolated from a rat brain λgt11 cDNA library as published elsewhere (Sigel et al., 1994, J. Biol. Chem. 269:8204). The clone for the subunit NMDAR2B of the rat brain NMDA receptor was obtained from S. Nakanishi (Kyoto, Japan). The cDNAs were transcribed, capped and poly(A^+)-tailed as described previously (Malherbe et al., 1990, Mol. Brain Res. 8: 199). Oocytes of South African frogs (Xenopus laevis) were used for expressing either a combination of the NMDAR1C and NMDAR2A subunits or the NMDAR1C and NMDAR2B subunits. Approximately 3 fmol of a 1:1 mixture of the respective mRNA species were injected into every oocyte. Four to five days later the ion current through the NMDA receptor channels was measured in voltage clamp experiments (see Methfessel et al., 1986, Pfliigers Arch. 407:577 for the methods of oocyte expression and voltage-clamping). The membrane potential was clamped to -80 mV and the receptors were activated by applying a modified Ringer's solution containing the NMDA-receptor agonists L-asparatate (Asp) and glycine (Gly). Different agonist concentrations were chosen for either subunit combination to account for the different agonist sensitivities of the two types of receptors (70 μM Asp plus 2.5 μM Gly for NMDARlC--NMDAR2A and 15 μM Asp plus 0.2 μM Gly for NMDAR1C--NMDAR2B). The agonists were applied for 15 s intervals once every 2.5 min by rapid superfusion of the oocyte with agonist containing solution and the amplitude of the agonist-evoked current was measured immediately before the end of each application. After a series of initial control applications, increasing concentrations of the antagonist to be tested were added to both, the basal Ringer's and the agonist containing solution. […] Figures for the IC50 in all other cases are arithmetic mean values of individual IC50 s determined by the logistic curve fits.

In a further test the target is T2, NMDAR1C--NMDAR2A (Rattus norvegicus, UniProt P35439+Q00959).
T2 construct: expressed in transfected cells; host or cells: Xenopus laevis oocytes, mRNA injected 1:1
T2 sequence (Q00959 23-1464, other chains not shown): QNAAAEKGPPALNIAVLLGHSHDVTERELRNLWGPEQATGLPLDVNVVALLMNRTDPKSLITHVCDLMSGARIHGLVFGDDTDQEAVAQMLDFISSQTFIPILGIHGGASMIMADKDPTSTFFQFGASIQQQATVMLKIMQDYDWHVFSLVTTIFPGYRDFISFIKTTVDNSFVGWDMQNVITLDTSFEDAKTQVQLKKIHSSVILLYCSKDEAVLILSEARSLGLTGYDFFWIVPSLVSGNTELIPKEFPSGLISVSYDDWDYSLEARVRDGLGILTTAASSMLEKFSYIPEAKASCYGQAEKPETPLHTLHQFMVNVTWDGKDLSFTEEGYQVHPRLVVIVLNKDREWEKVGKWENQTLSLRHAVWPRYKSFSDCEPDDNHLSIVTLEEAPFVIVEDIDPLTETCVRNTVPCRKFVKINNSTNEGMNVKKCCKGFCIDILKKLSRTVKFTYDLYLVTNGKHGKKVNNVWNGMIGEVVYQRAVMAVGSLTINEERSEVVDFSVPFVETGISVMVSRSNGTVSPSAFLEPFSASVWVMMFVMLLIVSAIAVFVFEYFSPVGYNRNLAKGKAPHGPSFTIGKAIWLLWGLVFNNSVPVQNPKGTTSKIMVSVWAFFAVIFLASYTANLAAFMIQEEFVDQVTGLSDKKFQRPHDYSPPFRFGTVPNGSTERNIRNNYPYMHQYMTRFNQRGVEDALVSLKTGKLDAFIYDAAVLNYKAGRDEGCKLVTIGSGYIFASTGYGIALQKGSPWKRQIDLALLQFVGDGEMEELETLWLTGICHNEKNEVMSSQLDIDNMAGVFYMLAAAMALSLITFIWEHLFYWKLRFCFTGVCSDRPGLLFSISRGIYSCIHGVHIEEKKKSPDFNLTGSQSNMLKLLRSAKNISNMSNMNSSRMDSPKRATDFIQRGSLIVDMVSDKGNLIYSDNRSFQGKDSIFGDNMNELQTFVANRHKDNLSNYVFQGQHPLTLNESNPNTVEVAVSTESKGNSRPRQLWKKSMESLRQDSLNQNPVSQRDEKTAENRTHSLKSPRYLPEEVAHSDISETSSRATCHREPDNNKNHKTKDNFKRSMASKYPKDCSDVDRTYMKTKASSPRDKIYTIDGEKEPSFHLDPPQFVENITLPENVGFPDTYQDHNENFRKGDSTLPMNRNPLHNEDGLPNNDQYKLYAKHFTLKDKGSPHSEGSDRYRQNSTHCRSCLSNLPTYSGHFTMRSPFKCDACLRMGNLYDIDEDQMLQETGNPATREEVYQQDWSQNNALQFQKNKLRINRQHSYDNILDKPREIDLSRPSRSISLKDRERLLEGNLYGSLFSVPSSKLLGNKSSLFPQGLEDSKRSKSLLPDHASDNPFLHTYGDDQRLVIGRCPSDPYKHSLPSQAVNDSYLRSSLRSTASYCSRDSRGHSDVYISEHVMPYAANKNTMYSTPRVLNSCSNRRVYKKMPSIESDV
The test is described as follows: Electrophysiology on recombinant NMDA receptors NMDAR1C-NMDAR2A expressed in Xenopus oocytes. The class given is cell-based. Conditions: -80 mV, 70 μM Asp plus 2.5 μM Gly, > = highest tested concentration (solubility limit), read-out: Electrophysiology IC50 NMDAR 1C u. 2A.
Description: as §1, §2

Setting [2] is: high affinity binding site, read-out: 3H-MK801 IC50 high.
The mark [3] stands for this setting: low affinity binding site, read-out: 3H-MK801 IC50 low.

T1 sequence (Q00960 27-1482, other chains not shown): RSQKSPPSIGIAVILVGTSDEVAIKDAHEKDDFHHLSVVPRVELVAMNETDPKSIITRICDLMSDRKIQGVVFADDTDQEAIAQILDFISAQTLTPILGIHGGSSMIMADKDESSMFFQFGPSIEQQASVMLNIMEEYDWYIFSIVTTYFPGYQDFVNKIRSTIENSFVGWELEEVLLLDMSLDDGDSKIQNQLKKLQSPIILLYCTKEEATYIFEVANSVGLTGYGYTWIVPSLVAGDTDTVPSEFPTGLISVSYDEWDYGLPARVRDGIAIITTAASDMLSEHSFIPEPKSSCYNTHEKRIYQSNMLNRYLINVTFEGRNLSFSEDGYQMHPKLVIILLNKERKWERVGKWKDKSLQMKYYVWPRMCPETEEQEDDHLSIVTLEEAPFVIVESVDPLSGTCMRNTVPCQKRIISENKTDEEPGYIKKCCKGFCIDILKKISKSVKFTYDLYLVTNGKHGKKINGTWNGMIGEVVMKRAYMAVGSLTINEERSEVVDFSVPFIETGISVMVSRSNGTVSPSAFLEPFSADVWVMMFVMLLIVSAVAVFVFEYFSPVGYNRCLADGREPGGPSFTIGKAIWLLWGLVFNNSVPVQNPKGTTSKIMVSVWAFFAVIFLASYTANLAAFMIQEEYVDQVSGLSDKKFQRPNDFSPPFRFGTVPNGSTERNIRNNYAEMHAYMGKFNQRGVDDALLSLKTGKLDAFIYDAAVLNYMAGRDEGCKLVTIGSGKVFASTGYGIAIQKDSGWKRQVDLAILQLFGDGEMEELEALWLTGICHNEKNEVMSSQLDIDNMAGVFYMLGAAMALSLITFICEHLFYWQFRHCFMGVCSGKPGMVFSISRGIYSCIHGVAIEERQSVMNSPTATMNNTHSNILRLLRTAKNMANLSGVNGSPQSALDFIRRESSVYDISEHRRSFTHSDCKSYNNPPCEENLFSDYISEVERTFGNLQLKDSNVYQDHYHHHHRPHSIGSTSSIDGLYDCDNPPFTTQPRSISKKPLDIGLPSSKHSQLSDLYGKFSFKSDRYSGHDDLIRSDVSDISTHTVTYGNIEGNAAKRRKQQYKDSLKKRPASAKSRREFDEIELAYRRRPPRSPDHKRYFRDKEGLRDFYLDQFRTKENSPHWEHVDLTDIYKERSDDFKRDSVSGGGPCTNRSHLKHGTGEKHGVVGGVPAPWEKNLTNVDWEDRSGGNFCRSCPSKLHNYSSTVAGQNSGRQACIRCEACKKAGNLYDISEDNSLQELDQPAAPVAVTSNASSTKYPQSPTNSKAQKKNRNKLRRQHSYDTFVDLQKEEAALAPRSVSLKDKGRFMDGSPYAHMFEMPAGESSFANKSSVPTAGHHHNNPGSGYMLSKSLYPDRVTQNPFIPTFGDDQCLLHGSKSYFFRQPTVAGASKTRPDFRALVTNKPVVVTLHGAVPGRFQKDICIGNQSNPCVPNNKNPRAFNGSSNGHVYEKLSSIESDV

In the case of `OC(COc1ccccc1)CN1CC=C(c2ccccc2)CC1` (stereo not drawn) [M], the IC50 in test [1] (setting [2]) was found to be 1.75 µM; in test [1] (setting [3]), 102 µM.

On to `CCC(=O)Nc1ccc(OCCCN2CC=C(c3ccc(F)cc3)CC2)cc1` [L], for which the IC50 in test [1] (setting [2]) amounted to 1 µM; in test [1] (setting [3]), 110 µM.

As to `CC(=O)Nc1ccc(OCCCN2CC=C(c3ccc(F)cc3)CC2)cc1` [F], the IC50 was determined as 0.2 µM in test [1] (setting [2]) and 85 µM in test [1] (setting [3]).

As for `CC(=O)c1ccc(OCCCN2CC=C(c3ccccc3)CC2)cc1` [O], the IC50 is 7.5 µM in test [1] (setting [2]) and 298 µM in test [1] (setting [3]).

Consider `CCOC(=O)Nc1ccc(OCC(O)CN2CC=C(c3ccc(F)cc3)CC2)cc1` (stereo not drawn) [D, [4-[3-[4-(4-Fluoro-phenyl)-3,6-dihydro-2H-pyridin-1-yl]-2-hydroxy-propoxy]-phenyl]-carbamic acid ethyl ester], for which the IC50 on NMDAR1C--NMDAR2B was 0.63 µM; at NMDAR1C--NMDAR2A it was greater than 20 µM; in test [1] (setting [2]), 0.136 µM; in test [1] (setting [3]), 320 µM.

`CS(=O)(=O)Nc1ccc(OCCN2CC=C(c3ccc(F)cc3)CC2)cc1` [G, N-[4-[2-[4-(4-Fluoro-phenyl)-3,6-dihydro-2H-pyridin-1-yl]-ethoxy]-phenyl]-methanesulfonamide]: the IC50 at NMDAR1C--NMDAR2B was 0.8 µM; on NMDAR1C--NMDAR2A, greater than 30 µM; in test [1] (setting [2]) it was 0.236 µM; in test [1] (setting [3]), 24 µM.

Take `CS(=O)(=O)Nc1ccc(OCCCN2CC=C(c3ccc(F)cc3)CC2)cc1` [B, N-[4-[3-[4-(4-Fluoro-phenyl)-3,6-dihydro-2H-pyridin-1-yl]-propoxy]-phenyl]-methanesulfonamide hydrochloride (1:1)]: the IC50 in test [1] (setting [2]) is 0.02 µM; in test [1] (setting [3]), 75 µM.

`Nc1ccc(OCCCN2CC=C(c3ccc(F)cc3)CC2)cc1` [J]: the results for the IC50 in test [1] (setting [2]) and in test [1] (setting [3]) were 0.78 µM and 44 µM, respectively.

With `CC(=O)Nc1ccc(OCCCN2CC=C(c3ccc(Cl)cc3)CC2)cc1` [E, N-[4-[3-[4-(4-chloro-phenyl)-3,6-dihydro-2H-pyridin-1-yl]-propoxy]-phenyl]-acetamide], the IC50 in test [1] (setting [2]) stood at 0.2 µM; in test [1] (setting [3]), 88 µM.

For the compound `OC(COc1ccc2c(c1)CCC2)CN1CC=C(c2ccc(F)cc2)CC1` (stereo not drawn) [compound N], the IC50 in test [1] (setting [2]) came to 1.96 µM; in test [1] (setting [3]) it was 258 µM.

Regarding `CS(=O)(=O)Nc1ccc(OCC(O)CN2CC=C(c3ccc(F)cc3)CC2)cc1` (stereo not drawn) [C, N-[4-[3-[4-(4-Fluoro-phenyl)-3,6-dihydro-2H-pyridin-1-yl]-2-hydroxy-propoxy]-phenyl]-methanesulfonamide], the IC50 in test [1] (setting [2]) stood at 0.02 µM; in test [1] (setting [3]) it was 69 µM.

As for `NC(=O)c1ccc(OCC(O)CN2CC=C(c3ccc(F)cc3)CC2)cc1` (stereo not drawn) [H], the IC50 was 0.71 µM at NMDAR1C--NMDAR2B, greater than 30 µM on NMDAR1C--NMDAR2A, 0.33 µM in test [1] (setting [2]) and 40 µM in test [1] (setting [3]).

Consider `CC(=O)Nc1ccc(OCC(O)CN2CC=C(c3ccccc3)CC2)cc1` (stereo not drawn) [I], for which the figures for the IC50 in test [1] (setting [2]) and in test [1] (setting [3]) were 0.41 µM and 110 µM, respectively.

Turning to `NC(=O)Nc1ccc(OCC(O)CN2CC=C(c3ccc(F)cc3)CC2)cc1` (stereo not drawn) [A, [4-[3-[4-(4-Fluoro-phenyl)-3,6-dihydro-2H-pyridin-1-yl]-2-hydroxy-propoxy]-phenyl]-urea], the values for the concentration for half-maximal inhibition (IC50) in test [1] (setting [2]) and in test [1] (setting [3]) were 0.02 µM and 55 µM, respectively.

`COc1ccc(C2=CCN(CCCOc3ccc(NC(C)=O)cc3)CC2)cc1` [K]: the IC50 was 0.91 µM in test [1] (setting [2]) and 76 µM in test [1] (setting [3]).
